The target in one test is human A2B receptors (Homo sapiens (Human), UniProt P29275). As to the kind of experiment: A2B antagonism in cAMP cell-based assay (LANCE cAMP, HEK293). As to conditions: HEK293 cells expressing human A2B receptor. As for the experimental part: (§1) Measurement of A2A and A2B Antagonism in cAMP Cell-Based Assay
(§2) The ability of compounds to antagonize human A2A and A2B adenosine receptors was determined using a kit to measure changes in intracellular cyclic AMP levels (LANCE cAMP 384 Kit, Perkin Elmer, Cat. No. AD0264). HEK293 cells recombinantly expressing either human A2A or A2B receptors, previously frozen in Recovery Medium (Life Technologies, Cat. No. 12648-010) were thawed and diluted into stimulation buffer (HBSS (Hyclone SH 30268.01), 5 mM HEPES (Gibco 15630-106), 200 nM rolipram (Tocris, Cat. No. 0905), and 1.5% (V/v) BSA stabilizer (kit component). The cell suspension was centrifuged at 200×g for 10 min and then resuspended in stimulation buffer, supplemented with a 1:10 000 dilution of Alexa Fluor 647 anti-cAMP antibody, to a density of 6.0×10^5 cells/mL. A Labcyte Echo 550 acoustic dispenser was used to transfer up to 25 nL of test compound dissolved in DMSO into the wells of a dry Optiplate-384 plate (Perkin Elmer, Cat. No. 6008289). All subsequent liquid additions were performed using a multichannel pipettor. Next, 5 μL of the cell suspension was added to the wells of the Optiplate-384 and incubated for 30 min. at 37° C. and 5% CO2 in a humidified environment. After this time 5 μL of either 300 nM or 600 nM adenosine (Sigma Cat. No. A9251) for A2A and A2B respectively was added and incubated for 30 minutes at 37° C. and 5% CO2 in a humidified environment. At this time detection mix was prepared by combining the LANCE Eu-W8044 labeled streptavidin and Biotin-cAMP in detection buffer according to the manufacturers protocol. 10 μL of the detection mix was added to each well of the Optiplate-384 which was covered with a plate seal and incubated under ambient conditions for 2 hours prior to reading the plate using an Envision (Perkin Elmer, Waltham, Mass.) multimode plate reader. Data was normalized by defining minimal effect as stimulation in the presence of 0.25% (v/v) DMSO and maximal effect as stimulation in the presence of 1 μM ZM241385 (Cayman, Cat. No. 1036). Curve fitting of the percent effect data versus the log of compound concentration used a 4-parameter concentration response curve fitting algorithm to calculate IC50 values. Compound concentrations tested were 10,000, 3,333, 1,111, 370.4, 123.4, 41.2, 13.7, 4.6, 1.5 and 0.5 nM with 0.25% residual DMSO.
A general note: TR-FRET usually uses a lanthanide donor and a delayed reading to cut background.

The next test addresses human A2A receptors (Homo sapiens (Human), UniProt P29274). As to the kind of experiment: A2A antagonism in cAMP cell-based assay (LANCE cAMP, HEK293). As to conditions: HEK293 cells expressing human A2A receptor. The procedure:
as §1, §2

The target in test [1] is human A2b adenosine receptor (Homo sapiens (Human), UniProt P29275). Kind of test: A2b radioligand filtration binding assay. The settings on record: membranes from HEK293 cells expressing human A2b receptor. An outline of the steps: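 Membranes from HEK293 cells expressing human A2b receptor preincubated with compound 15 to 30 min at room temperature, then tritiated proprietary A2b antagonist (diluted to 14 nM before addition) added in PBS pH 7.4 for 60 min at room temperature. Bound radioactivity by filtration and scintillation; non-specific binding with 20 μM NECA; IC50 by 4-parameter logistic fit.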

In test [2] the target is human A2a adenosine receptor (Homo sapiens (Human), UniProt P29274). As to the kind of experiment: A2a receptor affinity radioligand binding assay ([3H] SCH58261). The settings on record: membranes from HEK293 or CHO cells expressing human A2a receptor. An outline of the steps:
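Membranes from HEK293 or CHO cells expressing human A2a were preincubated 15–30 min at room temperature with compound, then incubated 60 min at room temperature with [3H]SCH58261 (diluted to 4 nM) in 50 mM Tris pH 7.4, 10 mM MgCl2, 0.005% Tween20. Bound radioactivity was collected by filtration; nonspecific binding defined with 1 μM ZM241385; IC50 from 4-parameter logistic fit.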

Chain of human A2A receptors (P29274 whole entry): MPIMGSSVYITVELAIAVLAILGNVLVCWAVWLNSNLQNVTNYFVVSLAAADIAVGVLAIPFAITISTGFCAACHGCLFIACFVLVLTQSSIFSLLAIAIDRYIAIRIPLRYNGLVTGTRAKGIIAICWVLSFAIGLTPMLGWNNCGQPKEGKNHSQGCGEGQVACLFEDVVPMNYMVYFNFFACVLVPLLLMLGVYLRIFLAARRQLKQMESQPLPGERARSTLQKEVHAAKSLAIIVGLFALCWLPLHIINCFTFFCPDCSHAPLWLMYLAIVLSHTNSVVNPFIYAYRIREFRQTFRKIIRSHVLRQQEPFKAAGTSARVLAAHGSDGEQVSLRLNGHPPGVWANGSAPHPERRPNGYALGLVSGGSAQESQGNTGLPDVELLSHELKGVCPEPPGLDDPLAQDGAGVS
Chain of human A2a adenosine receptor (P29274 whole entry): as above
Chain of human A2B receptors (P29275 whole entry): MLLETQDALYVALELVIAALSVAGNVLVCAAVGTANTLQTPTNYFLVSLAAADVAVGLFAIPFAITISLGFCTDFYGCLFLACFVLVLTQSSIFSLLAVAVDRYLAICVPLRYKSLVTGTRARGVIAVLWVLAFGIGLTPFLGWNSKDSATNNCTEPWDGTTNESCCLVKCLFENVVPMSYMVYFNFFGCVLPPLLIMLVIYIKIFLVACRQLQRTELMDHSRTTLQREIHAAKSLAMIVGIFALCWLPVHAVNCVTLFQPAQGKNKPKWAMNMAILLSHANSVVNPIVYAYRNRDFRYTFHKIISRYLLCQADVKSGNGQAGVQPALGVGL
Chain of human A2b adenosine receptor (P29275 whole entry): as above

As usually defined, the IC50 is the concentration at which inhibition is half-maximal. A low value points to inhibition by little substance. As to `COc1cc2nc(N)n3nc(C4CC(C)CN(c5cn(C(C)(C)CO)nc5C)C4)nc3c2cc1F` (racemic) [Example 155, racemic, trans-2-(4-(3-(5-amino-9-fluoro-8-methoxy-[1,2,4]triazolo [1,5-c]quinazolin-2-yl)-5-methylpiperidin-1-yl)-3-methyl-1H-pyrazol-1-yl)-2-methylpropan-1-ol], the IC50 against human A2B receptors came out at 1440 nM; against human A2A receptors it was 23.9 nM.

Consider `COc1cc2nc(N)n3nc(C4CC(C)CN(c5cnn(C(C)(C)CO)c5)C4)nc3c2cc1F` (racemic) [Example 156, racemic, trans-2-(4-(3-(5-amino-9-fluoro-8-methoxy-[1,2,4]triazolo[1,5-c]quinazolin-2-yl)-5-methylpiperidin-1-yl)-1H-pyrazol-1-yl)-2-methylpropan-1-ol], for which the IC50 on human A2B receptors came out at 358 nM; at human A2A receptors, 9.5 nM.

In the case of `COc1cc2nc(N)n3nc([C@@H]4C[C@H](C)CN(c5cnn(CC(C)(C)O)c5)C4)nc3c2cc1F` (single isomer, unassigned) [Example 157, 1-(4-((3R,5S or 3S,5R)-3-(5-amino-9-fluoro-8-methoxy-[1,2,4]triazolo[1,5-c]quinazolin-2-yl)-5-methylpiperidin-1-yl)-1H-pyrazol-1-yl)-2-methylpropan-2-ol], the IC50 against human A2B receptors came to 4480 nM; against human A2A receptors, 33.4 nM.

As for `COc1cc2nc(N)n3nc([C@H]4C[C@@H](C)CN(c5cnn(CC(C)(C)O)c5)C4)nc3c2cc1F` (single isomer, unassigned) [Example 158, 1-(4-((3S,5R or 3R,5S)-3-(5-amino-9-fluoro-8-methoxy-[1,2,4]triazolo[1,5-c]quinazolin-2-yl)-5-methylpiperidin-1-yl)-1H-pyrazol-1-yl)-2-methylpropan-2-ol], the IC50 was found to be 32.9 nM against human A2B receptors and 1.1 nM against human A2A receptors.

`COc1cc(F)cc2c1nc(N)n1nc(C3CC(C)CN(c4cn(C(C)C(C)O)nc4C)C3)nc21` (single isomer, unassigned) [Example 224, (2S,3S or 2R,3R)-3-(4-((3R,5S or 3S,5R)-3-(5-amino-9-fluoro-7-methoxy-[1,2,4]triazolo[1,5-c]quinazolin-2-yl)-5-methylpiperidin-1-yl)-3-methyl-1H-pyrazol-1-yl)butan-2-ol]: at human A2A receptors, the IC50 stood at 0.4 nM.

Consider `COc1cc(F)cc2c1nc(N)n1nc(C3CC(C)CN(c4cn(C(C)C(C)O)nc4C)C3)nc21` (single isomer, unassigned) [Example 225, (2R,3R or 2S,3S)-3-(4-((3R,5S or 3S,5R)-3-(5-amino-9-fluoro-7-methoxy-[1,2,4]triazolo[1,5-c]quinazolin-2-yl)-5-methylpiperidin-1-yl)-3-methyl-1H-pyrazol-1-yl)butan-2-ol], for which the IC50 on human A2A receptors is 0.4 nM.

For `COc1cc(F)cc2c1nc(N)n1nc(C3CC(C)CN(c4cn(C(C)C(C)O)nc4C)C3)nc21` (single isomer, unassigned) [Example 226, (2R,3R or 2S,3S)-3-(4-((3S,5R or 3R,5S)-3-(5-amino-9-fluoro-7-methoxy-[1,2,4]triazolo[1,5-c]quinazolin-2-yl)-5-methylpiperidin-1-yl)-3-methyl-1H-pyrazol-1-yl)butan-2-ol], inhibition on human A2A receptors was half-maximal at 17.6 nM (IC50).

As for `COc1cc(F)cc2c1nc(N)n1nc(C3CC(C)CN(c4cn(C(C)C(C)O)nc4C)C3)nc21` (single isomer, unassigned) [Example 227, (2S,3S or 2R,3R)-3-(4-((3S,5R or 3R,5S)-3-(5-amino-9-fluoro-7-methoxy-[1,2,4]triazolo[1,5-c]quinazolin-2-yl)-5-methylpiperidin-1-yl)-3-methyl-1H-pyrazol-1-yl)butan-2-ol], the IC50 at human A2A receptors was 40.2 nM.

On to `C[C@H]1CC[C@@H](c2nc3c4cc(F)c(Cl)cc4nc(N)n3n2)CN1c1cnn(CC(C)(C)O)c1` [Example 110, 1-(4-((2S,5R)-5-(5-amino-8-chloro-9-fluoro-[1,2,4]triazolo[1,5-c]quinazolin-2-yl)-2-methylpiperidin-1-yl)-1H-pyrazol-1-yl)-2-methylpropan-2-ol], for which the IC50 was found to be 1.8 nM in test [1] and 0.2 nM in test [2].

As for `C[C@H]1CC[C@@H](c2nc3c4cc(F)cc(F)c4nc(N)n3n2)CN1c1cnn(CC(C)(C)O)c1` [Example 111, 1-(4-((2S,5R)-5-(5-amino-7,9-difluoro-[1,2,4]triazolo[1,5-c]quinazolin-2-yl)-2-methylpiperidin-1-yl)-1H-pyrazol-1-yl)-2-methylpropan-2-ol], the IC50 in test [1] turned out to be 16.5 nM; in test [2] it was 0.7 nM.

With `Cc1cc2nc(N)n3nc([C@@H]4CC[C@H](C)N(c5cnn(CC(C)(C)O)c5)C4)nc3c2cc1F` [Example 112, 1-(4-((2S,5R)-5-(5-amino-9-fluoro-8-methyl-[1,2,4]triazolo [1,5-c]quinazolin-2-yl)-2-methylpiperidin-1-yl)-1H-pyrazol-1-yl)-2-methylpropan-2-ol], the IC50 in test [1] turned out to be 7.9 nM; in test [2], 0.4 nM.

On to `Cn1cc(N2CCC[C@@H](c3nc4c5cc(Cl)cc(Cl)c5nc(N)n4n3)C2)cn1` [Example 113, (R)-7,9-dichloro-2-(1-(1-methyl-1H-pyrazol-4-yl)piperidin-3-yl)-[1,2,4]triazolo[1,5-c]quinazolin-5-amine], for which the figures for the IC50 in test [1] and in test [2] were 470 nM and 58.1 nM, respectively.

In the case of `COc1cc2nc(N)n3nc([C@@H]4CCCN(c5cn(CS(C)(=O)=O)nc5C)C4)nc3c2cc1F` [Example 129, (R)-9-fluoro-8-methoxy-2-(1-(3-methyl-1-((methylsulfonyl)methyl)-1H-pyrazol-4-yl)piperidin-3-yl)-[1,2,4]triazolo[1,5-c]quinazolin-5-amine], the IC50 was determined as 470 nM in test [1] and 4.1 nM in test [2].

For the compound `COc1cc2nc(N)n3nc([C@@H]4CCCN(c5cnn(CS(C)(=O)=O)c5C)C4)nc3c2cc1F` [Example 130, (R)-9-fluoro-8-methoxy-2-(1-(5-methyl-1-((methylsulfonyl)methyl)-1H-pyrazol-4-yl)piperidin-3-yl)-[1,2,4]triazolo[1,5-c]quinazolin-5-amine], the results for the concentration for half-maximal inhibition (IC50) in test [1] and in test [2] were 78.7 nM and 1.2 nM, respectively.

For `COc1cc2nc(N)n3nc([C@@H]4CCCN(c5cnn(CS(C)(=O)=O)c5)C4)nc3c2cc1F` [Example 131, (R)-9-fluoro-8-methoxy-2-(1-(1-((methylsulfonyl)methyl)-1H-pyrazol-4-yl)piperidin-3-yl)-[1,2,4]triazolo[1,5-c]quinazolin-5-amine], the half-maximal inhibitory concentration (IC50) in test [1] worked out at 66 nM; in test [2] it was 11.8 nM.

Regarding `COc1cc2nc(N)n3nc([C@@H]4CCCN(c5cn(CS(C)(=O)=O)nc5C(F)F)C4)nc3c2cc1F` [Example 132, (R)-2-(1-(3-(difluoromethyl)-1-((methylsulfonyl)methyl)-pyrazol-4-yl)piperidin-3-yl)-9-fluoro-8-methoxy-[1,2,4]triazolo[1,5-c]quinazolin-5-amine], the IC50 in test [1] amounted to 243 nM; in test [2], 6.7 nM.

In the case of `COc1cc2nc(N)n3nc([C@H]4CN(c5cn(CC(C)(C)O)nc5C)CCO4)nc3c2cc1F` [Example 140, (R)-1-(4-(2-(5-amino-9-fluoro-8-methoxy-[1,2,4]triazolo[1,5-c]quinazolin-2-yl)morpholino)-3-methyl-1H-pyrazol-1-yl)-2-methylpropan-2-ol], the IC50 in test [1] came out at 2720 nM; in test [2], 0.8 nM.

Consider `COc1cc2nc(N)n3nc([C@H]4CN(c5cnn(CC(C)(C)O)c5C)CCO4)nc3c2cc1F` [Example 141, (R)-1-(4-(2-(5-amino-9-fluoro-8-methoxy-[1,2,4]triazolo[1,5-c]quinazolin-2-yl)morpholino)-5-methyl-1H-pyrazol-1-yl)-2-methylpropan-2-ol], for which the IC50 in test [1] worked out at 1760 nM; in test [2], 24.1 nM.
